Assay results: the NIST ThermoML archive (doi:10.1021/je0301794)

Key:
[1] = xn = mol fraction of the nth substance listed; conditions: 101.3 kPa, Liquid
[2] = excess molar enthalpy (molar enthalpy of mixing); xn = mol fraction of the nth substance listed; conditions: 318.15 K, 101.3 kPa, Liquid

COC(=O)OC [dimethyl carbonate] + CCCCCCCC
[1]
Conditions	mass density [kg/m3]
293.15 K, x1 = 0.0513	711.1
293.15 K, x1 = 0.0997	719.8
293.15 K, x1 = 0.2027	740.5
293.15 K, x1 = 0.3063	764.5
293.15 K, x1 = 0.3994	789.1
293.15 K, x1 = 0.5123	823.6
293.15 K, x1 = 0.6078	857.4
293.15 K, x1 = 0.7137	901.2
293.15 K, x1 = 0.8055	945.8
293.15 K, x1 = 0.9061	1004
293.15 K, x1 = 0.9516	1034.3
293.15 K, x1 = 1	1070
298.15 K, x1 = 0.0558	707.8
298.15 K, x1 = 0.096	715
298.15 K, x1 = 0.1488	725.1
298.15 K, x1 = 0.2289	741.8
298.15 K, x1 = 0.2947	756.9
298.15 K, x1 = 0.4216	790.4
298.15 K, x1 = 0.4883	810.6
298.15 K, x1 = 0.4968	813.3
298.15 K, x1 = 0.5931	846.6
298.15 K, x1 = 0.6867	884.1
298.15 K, x1 = 0.7879	931.6
298.15 K, x1 = 0.8873	987.1
298.15 K, x1 = 0.9502	1027.7
298.15 K, x1 = 1	1063.5
303.15 K, x1 = 0.0519	702.9
303.15 K, x1 = 0.0827	708.3
303.15 K, x1 = 0.1947	729.9
303.15 K, x1 = 0.2829	749.4
303.15 K, x1 = 0.3948	778.1
303.15 K, x1 = 0.4942	807.5
303.15 K, x1 = 0.5964	842.4
303.15 K, x1 = 0.6983	883.1
303.15 K, x1 = 0.7886	925.2
303.15 K, x1 = 0.8946	984.3
303.15 K, x1 = 0.9545	1023.4
303.15 K, x1 = 1	1056.5
313.15 K, x1 = 0.0512	694.5
313.15 K, x1 = 0.1005	703
313.15 K, x1 = 0.186	719.2
313.15 K, x1 = 0.301	744.5
313.15 K, x1 = 0.4072	771.6
313.15 K, x1 = 0.5002	799.1
313.15 K, x1 = 0.6042	834.5
313.15 K, x1 = 0.709	876.3
313.15 K, x1 = 0.7993	918.8
313.15 K, x1 = 0.8465	944
313.15 K, x1 = 0.9524	1009.1
313.15 K, x1 = 1	1043.4
318.15 K, x1 = 0.0823	695.4
318.15 K, x1 = 0.1827	714.2
318.15 K, x1 = 0.2965	738.7
318.15 K, x1 = 0.3626	754.9
318.15 K, x1 = 0.436	774.6
318.15 K, x1 = 0.5156	798.6
318.15 K, x1 = 0.5606	813.4
318.15 K, x1 = 0.6305	838.7
318.15 K, x1 = 0.6756	856.4
318.15 K, x1 = 0.7428	885.6
318.15 K, x1 = 0.7845	905.6
318.15 K, x1 = 0.8233	925.5
318.15 K, x1 = 0.8711	951.7
318.15 K, x1 = 0.9071	973.5
318.15 K, x1 = 0.964	1010.8
318.15 K, x1 = 0.9761	1019.5
318.15 K, x1 = 1	1036.9

[2]
Conditions	excess molar enthalpy [kcal/mol]
x1 = 0.0844	0.164
x1 = 0.1746	0.299
x1 = 0.2622	0.403
x1 = 0.3463	0.475
x1 = 0.4232	0.514
x1 = 0.4922	0.528
x1 = 0.5544	0.528
x1 = 0.6104	0.516
x1 = 0.6455	0.504
x1 = 0.683	0.488
x1 = 0.7224	0.461
x1 = 0.7671	0.419
x1 = 0.8115	0.368
x1 = 0.8562	0.307
x1 = 0.8987	0.238
x1 = 0.9358	0.167
x1 = 0.9713	0.0834
x1 = 1	0

CCCCCCCCC [nonane] + COC(=O)OC
[1]
Conditions	mass density [kg/m3]
293.15 K, x2 = 0	717.7
293.15 K, x2 = 0.0444	724.2
293.15 K, x2 = 0.0909	731.4
293.15 K, x2 = 0.1838	747.3
293.15 K, x2 = 0.28	766.3
293.15 K, x2 = 0.3783	789
293.15 K, x2 = 0.4778	815.8
293.15 K, x2 = 0.5789	847.5
293.15 K, x2 = 0.6816	885.9
293.15 K, x2 = 0.7851	932.5
293.15 K, x2 = 0.8921	991.9
293.15 K, x2 = 0.9461	1028.3
298.15 K, x2 = 0	713.9
298.15 K, x2 = 0.0247	717.5
298.15 K, x2 = 0.083	726.1
298.15 K, x2 = 0.1221	732.4
298.15 K, x2 = 0.1812	742.6
298.15 K, x2 = 0.2278	751.4
298.15 K, x2 = 0.317	770
298.15 K, x2 = 0.3986	789.4
298.15 K, x2 = 0.4701	808.5
298.15 K, x2 = 0.5281	825.7
298.15 K, x2 = 0.601	849.8
298.15 K, x2 = 0.6553	869.8
298.15 K, x2 = 0.7064	890.4
298.15 K, x2 = 0.7517	910.5
298.15 K, x2 = 0.7982	933
298.15 K, x2 = 0.8404	955.5
298.15 K, x2 = 0.8725	973.9
298.15 K, x2 = 0.9073	995.7
298.15 K, x2 = 0.9371	1015.5
298.15 K, x2 = 0.9711	1040.4
303.15 K, x2 = 0	710.1
303.15 K, x2 = 0.0444	716.3
303.15 K, x2 = 0.0909	723.3
303.15 K, x2 = 0.1838	738.9
303.15 K, x2 = 0.28	757.5
303.15 K, x2 = 0.3783	779.7
303.15 K, x2 = 0.4778	805.9
303.15 K, x2 = 0.5789	837
303.15 K, x2 = 0.6816	874.8
303.15 K, x2 = 0.7851	920.7
303.15 K, x2 = 0.8921	979.7
303.15 K, x2 = 0.9461	1015.6
313.15 K, x2 = 0	702.2
313.15 K, x2 = 0.0444	708.3
313.15 K, x2 = 0.0909	715.1
313.15 K, x2 = 0.1838	730.4
313.15 K, x2 = 0.28	748.7
313.15 K, x2 = 0.3783	770.5
313.15 K, x2 = 0.4778	796
313.15 K, x2 = 0.5789	826.7
313.15 K, x2 = 0.6816	864
313.15 K, x2 = 0.7851	909.4
313.15 K, x2 = 0.8921	967.3
313.15 K, x2 = 0.9461	1002.8
318.15 K, x2 = 0	698.1
318.15 K, x2 = 0.0409	703.8
318.15 K, x2 = 0.0763	709
318.15 K, x2 = 0.1089	714
318.15 K, x2 = 0.1249	716.6
318.15 K, x2 = 0.1452	719.9
318.15 K, x2 = 0.1957	728.5
318.15 K, x2 = 0.2309	735
318.15 K, x2 = 0.3153	751.7
318.15 K, x2 = 0.3894	768.3
318.15 K, x2 = 0.4732	789.6
318.15 K, x2 = 0.5442	810.1
318.15 K, x2 = 0.6088	831.2
318.15 K, x2 = 0.6356	840.8
318.15 K, x2 = 0.711	870.1
318.15 K, x2 = 0.761	891.8
318.15 K, x2 = 0.787	904
318.15 K, x2 = 0.8304	926
318.15 K, x2 = 0.8802	954.1
318.15 K, x2 = 0.9335	987.7
318.15 K, x2 = 0.9414	993.1
318.15 K, x2 = 0.972	1015

[2]
Conditions	excess molar enthalpy [kcal/mol]
x2 = 0	0
x2 = 0.1291	0.24
x2 = 0.2483	0.396
x2 = 0.3498	0.489
x2 = 0.4426	0.538
x2 = 0.5099	0.549
x2 = 0.573	0.55
x2 = 0.627	0.533
x2 = 0.6622	0.515
x2 = 0.6743	0.509
x2 = 0.7043	0.49
x2 = 0.748	0.455
x2 = 0.7814	0.427
x2 = 0.8236	0.378
x2 = 0.8663	0.316
x2 = 0.9069	0.25
x2 = 0.9415	0.18
x2 = 0.9752	0.098
